Assay results taken from US10173983B2, “Fungicidal pyridylamidines” (Syngenta Participations AG, priority 2014, dated 2019).

Assays:
Assay type in all cases: in vivo
[1] = test system: Puccinia recondita f. sp. tritici; assay: Puccinia recondita f. sp. tritici / wheat / leaf disc curative (brown rust); settings: foliar, wheat leaf segments cv. Kanzler, compound applied 1 day after inoculation, assessed 6-8 days after application, compared to untreated, read-out: disease control
Procedure: Puccinia recondita f. sp. tritici/Wheat/Leaf Disc Curative (Brown Rust) Wheat leaf segments cv. Kanzler are placed on agar in multiwell plates (24-well format). The leaf segments are inoculated with a spore suspension of the fungus. Plates were stored in darkness at 19° C. and 75% rh. The formulated test compound diluted in water was applied 1 day after inoculation. The leaf segments were incubated at 19° C. and 75% rh under a light regime of 12 h light/12 h darkness in a climate cabinet and the activity of a compound was assessed as percent disease control compared to untreated when an appropriate level of disease damage appears in untreated check leaf segments (6-8 days after application). The following compounds gave at 200 ppm gave at least 80% disease control in this test when compared to untreated control leaf disks under the same conditions, which show extensive disease development: […]

[2] = test system: Puccinia recondita f. sp. tritici; assay: Puccinia recondita f. sp. tritici / wheat / leaf disc preventative (brown rust); settings: foliar, 168 h, wheat leaf segments cv. Kanzler, inoculated 1 day after application, assessed 7-9 days after application, compared to untreated, read-out: disease control
Procedure: Puccinia recondita f. sp. tritici/Wheat/Leaf Disc Preventative (Brown Rust) Wheat leaf segments cv. Kanzler were placed on agar in multiwell plates (24-well format) and sprayed with the formulated test compound diluted in water. The leaf disks were inoculated with a spore suspension of the fungus 1 day after application. The inoculated leaf segments were incubated at 19° C. and 75% rh under a light regime of 12 h light/12 h darkness in a climate cabinet and the activity of a compound was assessed as percent disease control compared to untreated when an appropriate level of disease damage appears in untreated check leaf segments (7-9 days after application). The following compounds gave at 200 ppm gave at least 80% disease control in this test when compared to untreated control leaf disks under the same conditions, which show extensive disease development: […]

[3] = test system: Blumeria graminis f. Sp. tritici (Erysiphe graminis f. sp. tritici); assay: Blumeria graminis f. sp. tritici / wheat / leaf disc preventative (powdery mildew on wheat); settings: foliar, wheat leaf segments cv. Kanzler, inoculated 1 day after application, assessed 6-8 days after application, compared to untreated, read-out: disease control
Procedure: Blumeria graminis f. Sp. tritici (Erysiphe graminis f. sp. tritici)/Wheat/Leaf Disc Preventative (Powdery Mildew on Wheat) Wheat leaf segments cv. Kanzler were placed on agar in a multiwell plate (24-well format) and sprayed with the formulated test compound diluted in water. The leaf disks were inoculated by shaking powdery mildew infected plants above the test plates 1 day after application. The inoculated leaf disks were incubated at 20° C. and 60% rh under a light regime of 24 h darkness followed by 12 h light/12 h darkness in a climate chamber and the activity of a compound was assessed as percent disease control compared to untreated when an appropriate level of disease damage appears on untreated check leaf segments (6-8 days after application). The following compounds gave at 200 ppm give at least 80% disease control in this test when compared to untreated control leaf disks under the same conditions, which show extensive disease development: […]

Phakopsora pachyrhizi = Phakopsora pachyrhizi on soybean, preventive treatment; settings: 264 h, 1 day preventive, triazole tolerant soybean rust strain, evaluated 11 days after application, compared to untreated, read-out: disease control
Procedure: Phakopsora pachyrhizi on Soybean, Preventive Treatment
The compound activity was tested under 1 day preventive conditions. Soybean plants with a fully enfolded first trifoliate leaf were sprayed with a track sprayer and 50 l/ha spray volume with the test compounds, either solo or in tankmix as shown in the table below. 1 day after application leaf discs were cut from the first trifoliate leaf and placed in multiwell plates on water-agar. 5 leaf discs per treatment where infested with spores of a triazole tolerant soybean rust strain. The multiwell plates where sealed and placed in an incubator 48 h in darkness and 12 h light/dark cycle afterwards. Rust infestation on leaf discs was evaluated visually 11 days after application and average activity calculated in relation to disease severity on untreated check leaf discs.
The following compounds gave at 200 ppm gave at least 80% disease control in this test when compared to untreated control leaf disks under the same conditions, which show extensive disease development: […]

Measured: pest or weed control at 200 ppm

CCN(C)C=Nc1cc(C#N)c(OC(C)COc2ccccc2)nc1C (centres unmarked) [Q.022, N′-[5-cyano-2-methyl-6-(1-methyl-2-phenoxy-ethoxy)-3-pyridyl]-N-ethyl-N-methyl-formamidine]
≥ 80%: [1] | [2] | [3]

CCN(C)C=Nc1cc(Cl)c(OC(C)COc2ccc(Cl)cc2)nc1C (centres unmarked) [Q.024, N′-[5-chloro-6-[2-(4-chlorophenoxy)-1-methyl-ethoxy]-2-methyl-3-pyridyl]-N-ethyl-N-methyl-formamidine]
≥ 80%: all assays above

CCCOCC(C)Oc1nc(C)c(/N=C/N(C)CC)cc1Br (stereo in doubt) [Q.002, N′-[5-bromo-2-methyl-6-[(1S)-1-methyl-2-propoxy-ethoxy]-3-pyridyl]-N-ethyl-N-methyl-formamidine]
≥ 80%: all assays above

CCN(C)C=Nc1cc(C#N)c(OC(C)COc2cccc(C(F)(F)F)c2)nc1C (centres unmarked) [Q.020, N′-[5-cyano-2-methyl-6-[1-methyl-2-[3-(trifluoromethyl)phenoxy]ethoxy]-3-pyridyl]-N-ethyl-N-methyl-formamidine]
≥ 80%: all assays above

CCN(C)C=Nc1cc(Br)c(OC(C)COc2ccc(Cl)cc2)nc1C (centres unmarked) [Q.026, N′-[5-bromo-6-[2-(4-chlorophenoxy)-1-methyl-ethoxy]-2-methyl-3-pyridyl]-N-ethyl-N-methyl-formamidine]
≥ 80%: all assays above

CCCOCC(C)Oc1nc(C)c(/N=C/N(C)CC)cc1C(=O)OC (centres unmarked) [Q.019, Methyl 5-[(E)-[ethyl(methyl)amino]methylene-amino]-6-methyl-2-(1-methyl-2-propoxy-ethoxy)pyridine-3-carboxylate]
≥ 80%: [1] | Phakopsora pachyrhizi

CCN(C)C=Nc1cc(Cl)c(OC(C)COc2ccccc2)nc1C (centres unmarked) [Q.025, N′-[5-chloro-2-methyl-6-(1-methyl-2-phenoxy-ethoxy)-3-pyridyl]-N-ethyl-N-methyl-formamidine]
≥ 80%: all assays above

CCCOCC(C)Oc1ccc(N=CN(C)CC)c(C)n1 (centres unmarked) [Q.012, N-ethyl-N-methyl-N′-[2-methyl-6-(1-methyl-2-propoxy-ethoxy)-3-pyridyl]formamidine]
≥ 80%: [1] | Phakopsora pachyrhizi

C=CCOCC(COC)Oc1nc(C)c(N=CN(C)CC)cc1Br (centres unmarked) [Q.016, N′-[6-[1-(allyloxymethyl)-2-methoxy-ethoxy]-5-bromo-2-methyl-3-pyridyl]-N-ethyl-N-methyl-formamidine]
≥ 80%: all assays above

CCCOCC(C)Oc1nc(C)c(/N=C/N(C)CC)cc1Cl (centres unmarked) [Q.015, N′-[5-chloro-2-methyl-6-(1-methyl-2-propoxy-ethoxy)-3-pyridyl]-N-ethyl-N-methyl-formamidine]
≥ 80%: all assays above

CCCOCC(C)Oc1nc(C)c(/N=C/N(C)CC)cc1C#N (centres unmarked) [Q.007, N′-[5-cyano-2-methyl-6-(1-methyl-2-propoxy-ethoxy)-3-pyridyl]-N-ethyl-N-methyl-formamidine]
≥ 80%: all assays above

CCN(C)C=Nc1cc(Cl)c(OC(C)COc2cccc(C(F)(F)F)c2)nc1C (centres unmarked) [Q.023, N′-[5-chloro-2-methyl-6-[1-methyl-2-[3-(trifluoromethyl)phenoxy]ethoxy]-3-pyridyl]-N-ethyl-N-methyl-formamidine]
≥ 80%: all assays above

CCCOCC(C)Oc1nc(C)c(N=CN2CCC2)cc1Br (centres unmarked) [Q.030, 1-(azetidin-1-yl)-N-[5-bromo-2-methyl-6-(1-methyl-2-propoxy-ethoxy)-3-pyridyl]methanimine]
≥ 80%: all assays above

CCCOCC(C)Oc1nc(C)c(N=CN(C)C2CC2)cc1Br (centres unmarked) [Q.029, N′-[5-bromo-2-methyl-6-(1-methyl-2-propoxy-ethoxy)-3-pyridyl]-N-cyclopropyl-N-methyl-formamidine]
≥ 80%: all assays above

CCCOCC(C)Oc1nc(C)c(N=CN(C)CC)cc1C (centres unmarked) [Q.011, N′-[2,5-dimethyl-6-(1-methyl-2-propoxy-ethoxy)-3-pyridyl]-N-ethyl-N-methyl-formamidine]
≥ 80%: all assays above

C=CCOCC(C)Oc1nc(C)c(N=CN(C)CC)cc1C#N (centres unmarked) [Q.017, N′-[6-(2-allyloxy-1-methyl-ethoxy)-5-cyano-2-methyl-3-pyridyl]-N-ethyl-N-methyl-formamidine]
≥ 80%: all assays above

CCN(C)C=Nc1cc(Br)c(OC(C)COc2cccc(C(F)(F)F)c2)nc1C (centres unmarked) [Q.027, N′-[5-bromo-2-methyl-6-[1-methyl-2-[3-(trifluoromethyl)phenoxy]ethoxy]-3-pyridyl]-N-ethyl-N-methyl-formamidine]
≥ 80%: [1] | [3] | Phakopsora pachyrhizi

CCN(C)C=Nc1cc(C#N)c(OC(C)COc2ccc(Cl)cc2)nc1C (centres unmarked) [Q.021, N′-[6-[2-(4-chlorophenoxy)-1-methyl-ethoxy]-5-cyano-2-methyl-3-pyridyl]-N-ethyl-N-methyl-formamidine]
≥ 80%: [1] | [2] | [3]
